Data from patent US5519024A, “Quinolonecarboxylic acid derivatives and their use” (Takeda Chemical Industries, Ltd., priority 1993, dated 1996).
Like-named read-outs stand apart in the source and are kept apart here.

Molecular target: T1, GPIIb/IIIa (Homo sapiens, UniProt P05106+P08514)
T1 construct: Purification of GPIIb/IIIa from HEL cells; endogenous in cells; host or cells: HEL cells (HEL 92.1.7, ATCC TIB180); endogenous complex solubilized with Triton X-100 and purified in house
Test: Inhibitory activity against binding of GPIIb/IIIa and fibrinogen
Conditions: for inhibition at 10 µM / inhibition at 1 µM: read-out: GPIIb/IIIa Fibrinogen Binding Inhibitory Activity
Protocol: Test Example 1: Inhibitory activity against binding of GPIIb/IIIa and fibrinogen
(1) Cultivation of human erythroleukemia-derived cell line (hereinafter referred to as HEL cells)
HEL cells (HEl92.1.7; ATCC No. TIB180) were purchased from ATCC (Rockville, Md., U.S.A.). The medium was RPMI medium (GIBCO Laboratories, Grand Island, N..Y, U.S.A.) containing 40 mM N-2-hydroxyethylpiperazine-N'-2-ethanesulfonic acid (hereinafter referred to as HEPES) (pH 7.0), 0.2% NaHCO3, 100 μg/ml kanamycin and 10% FCS. The cells were cultured in the presence of 5% CO2 at 37° C., with the medium replaced with a fresh medium to obtain a 4- to 5-fold dilution at intervals of 3 to 4 days.
(2) Purification of GPIIb/IIIa from HEL cells
GPIIb/IIIa was purified by a modification of the method of L. A. Fitzgerald et al. [J. Biol. Chem., 262, 3936 (1987)] as follows: All purification was conducted at room temperature, unless otherwise stated. At 7 days of cultivation, cells were collected from the HEL cell culture broth (cell suspension) by centrifugation (1,000 ×g, 10 minutes, 4° C.). After washing with 20 mM Tris-HCl (pH 7.5) containing 1 mM EDTA and 150 mM NaCl, the cells were suspended in a solubilizing buffer (20 mM Tris-HCl, 150 mM NaCl, 1% Triton X-100, 1 mM MgCl2, 1 mM CaCl2, 0.1 mM (p-amidinophenyl)methanesulfonyl fluoride (hereinafter referred to as APMSF), 10 nM leupeptin, 0.02% NaN3, pH 7.4), followed by gentle stirring at 4° C. for 30 minutes, to solubilize the GPIIb/IIIa. The suspension was centrifuged (100,000 ×g, 1 hour) at 4° C., and the cell debris removed, to yield a cell extract. The cell extract was passed through a Heparin-Sepharose CL-6B column (Pharmacia LKB) and a DEAE-Toyopearl 650M column (Tosoh), both previously equilibrated with a column buffer (20 mM Tris-HCl, 150 mM NaCl, 0.1% Triton X-100, 1 mM MgCl2, 1 mM CaCl2, 0.1 mM APMSF, 1 nM leupeptin, 0.05% NaN3, pH 7.4). The effluent was applied to a ConA-Sepharose column (Pharmacia LKB), previously equilibrated with the same column buffer as above, to adsorb the GPIIb/IIIa, followed by elution with the same column buffer but containing 0.5M methyl α-D-mannopyranoside. The eluted fraction was concentrated at 4° C. using an ultrafiltration apparatus (Amicon Corporation the fraction's molecular weight of 10,000), after which it was subjected to gel filtration through a Sephacryl S-300 column (Pharmacia LKB), previously equilibrated with the same column buffer, to yield a purified standard sample.
(3) Biotinization of human fibrinogen
Conducted by the method of I. F. Charo [I. F. Charo et al., J. Biol. Chem., 266, 1415 (1991)].
Human fibrinogen (Kabi Vitrum AB) was dissolved in PBS to 5 mg/ml and then dialyzed at 4° C. against 0.1M carbonate buffer (pH 8.2) containing 0.1M NaCl. After dialysis, insoluble substances were removed by centrifugation (100,000 ×g, 30 minutes), and the dialyzate was diluted to 1 mg/ml with the same buffer. To this dilution, sulfo-N-hydroxysuccinimidebiotin (Pierce Chemical Co.) was added to a final concentration of 0.2 mg/ml, followed by gentle mixing at room temperature for 30 minutes, to biotinize the fibrinogen. After completion of the reaction, the mixture was dialyzed against 0.05M Tris-HCl buffer (pH 7.4) containing 0.1M NaCl and 0.05% NaN3.
(4) Determination of inhibitory activity against fibrinogen binding
Conducted by a modification of the method of I. F. Charo [I. F. Charo et al., J. Biol. Chem., 266, 1415 (1991)] as follows: The purified GPIIb/IIIa was diluted to 1 μg/ml with buffer A (20 mM Tris-HCl, 150 mM NaCl, 1 mM CaCl2, 0.02% NaN3, pH 7.4). A 100 μl aliquot of this dilution was dispensed to a 96-well microplate (Maxisorp, produced by Nunc), and the plate kept standing at 4° C., to adsorb the GPIIb/IIIa to the microplate. Next, 150 μl of buffer B (35 mg/ml BSA, 50 mM Tris-HCl, 100 mM NaCl, 2 mM CaCl2, 0.02% NaN3, pH 7.4) was added, followed by 2 hours of blocking at 30° C. […]

T1 sequence (P08514 32-887 limits assumed): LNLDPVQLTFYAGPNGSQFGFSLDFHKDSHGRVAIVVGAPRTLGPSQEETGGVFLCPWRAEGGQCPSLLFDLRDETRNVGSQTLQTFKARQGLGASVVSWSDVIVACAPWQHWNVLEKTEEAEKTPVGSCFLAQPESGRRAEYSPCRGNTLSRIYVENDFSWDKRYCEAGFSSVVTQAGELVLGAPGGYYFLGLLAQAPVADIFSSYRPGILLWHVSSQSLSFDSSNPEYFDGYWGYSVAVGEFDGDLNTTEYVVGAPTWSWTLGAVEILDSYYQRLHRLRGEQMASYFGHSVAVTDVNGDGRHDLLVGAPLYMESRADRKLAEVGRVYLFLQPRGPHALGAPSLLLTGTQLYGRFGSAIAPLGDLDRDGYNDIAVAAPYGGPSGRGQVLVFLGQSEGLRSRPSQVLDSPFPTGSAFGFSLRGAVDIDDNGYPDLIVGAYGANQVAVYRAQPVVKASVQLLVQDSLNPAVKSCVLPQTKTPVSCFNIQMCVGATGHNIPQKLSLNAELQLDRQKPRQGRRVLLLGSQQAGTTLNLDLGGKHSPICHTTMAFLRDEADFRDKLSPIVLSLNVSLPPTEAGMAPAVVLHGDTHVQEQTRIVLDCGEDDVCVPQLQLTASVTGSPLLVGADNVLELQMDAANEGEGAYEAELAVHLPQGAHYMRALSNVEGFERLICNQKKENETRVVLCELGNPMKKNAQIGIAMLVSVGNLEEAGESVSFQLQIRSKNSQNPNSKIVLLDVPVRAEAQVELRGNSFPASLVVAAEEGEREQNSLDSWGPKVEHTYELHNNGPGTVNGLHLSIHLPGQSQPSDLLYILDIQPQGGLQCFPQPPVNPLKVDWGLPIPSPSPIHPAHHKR
T1 sequence (P08514 891-1039 limits assumed): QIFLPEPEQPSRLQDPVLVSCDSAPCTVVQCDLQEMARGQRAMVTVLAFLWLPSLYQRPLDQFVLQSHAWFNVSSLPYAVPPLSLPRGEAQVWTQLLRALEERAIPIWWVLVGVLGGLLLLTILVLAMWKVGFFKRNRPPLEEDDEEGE
T1 sequence (P05106 27-788): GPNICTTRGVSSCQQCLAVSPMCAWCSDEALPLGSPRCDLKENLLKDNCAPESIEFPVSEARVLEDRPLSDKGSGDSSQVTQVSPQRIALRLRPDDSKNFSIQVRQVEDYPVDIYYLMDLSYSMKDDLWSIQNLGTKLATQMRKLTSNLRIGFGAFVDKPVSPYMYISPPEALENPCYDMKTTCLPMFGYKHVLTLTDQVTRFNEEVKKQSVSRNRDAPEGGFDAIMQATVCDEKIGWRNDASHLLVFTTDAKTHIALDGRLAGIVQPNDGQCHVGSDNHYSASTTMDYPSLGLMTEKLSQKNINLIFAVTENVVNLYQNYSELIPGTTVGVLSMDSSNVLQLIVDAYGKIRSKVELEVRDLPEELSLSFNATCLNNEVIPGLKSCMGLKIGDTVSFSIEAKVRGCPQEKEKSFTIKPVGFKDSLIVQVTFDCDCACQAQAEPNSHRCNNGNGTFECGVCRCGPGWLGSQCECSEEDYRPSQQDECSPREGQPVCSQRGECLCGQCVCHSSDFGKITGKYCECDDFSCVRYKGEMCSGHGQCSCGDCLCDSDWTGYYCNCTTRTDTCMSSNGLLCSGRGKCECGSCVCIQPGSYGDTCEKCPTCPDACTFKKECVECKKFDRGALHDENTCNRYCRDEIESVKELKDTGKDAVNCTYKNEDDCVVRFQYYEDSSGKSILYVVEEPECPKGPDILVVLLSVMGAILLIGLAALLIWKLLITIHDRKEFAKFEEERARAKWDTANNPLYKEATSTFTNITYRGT

| Compound | inhibition at 10 µM (Table 2, 10^-5 M) | inhibition at 1 µM (Table 2, 10^-6 M) | other results |
| --- | --- | --- | --- |
| O=C(O)c1cn(Cc2cscn2)c2c(F)c(N3CCN(c4ccncc4)CC3)c(F)cc2c1=O [Compound 73, 6,8-Difluoro-7-[4-(4-pyridyl)piperazine-1-yl]-1-(4-thiazolylmethyl)-1,4-dihydro-4-oxoquinoline-3-carboxylic acid] | 100% | 100% | – |
| O=C(O)c1cn(Cc2ccc(Cl)cc2)c2c(F)c(N3CCNCC3)c(F)cc2c1=O [Compound 74, 1-(4-Chlorobenzyl)-6,8-difluoro-7-(1-piperazinyl)-1,4-dihydro-4-oxoquinoline-3-carboxylic acid] | 58.5% | 26.1% | – |
| O=C(O)c1cn(Cc2ccncc2)c2c(F)c(N3CCNCC3)c(F)cc2c1=O [Compound 75, 6,8-Difluoro-7-(1-piperazinyl)-1-(4-pyridylmethyl)-1,4-dihydro-4-oxoquinoline-3-carboxylic acid] | 100% | 100% | – |
| COc1ccccc1Cn1cc(C(=O)O)c(=O)c2cc(F)c(N3CCNCC3)c(F)c21 [Compound 76, 6,8-Difluoro-1-(2-methoxybenzyl)-7-(1-piperazinyl)-1,4-dihydro-4-oxoquinoline-3-carboxylic acid] | 100% | 83.1% | – |
| COc1ccc(Cn2cc(C(=O)O)c(=O)c3ccc(N4CCC(C5CCNCC5)CC4)cc32)cc1 [Compound 77, 1-(4-Methoxybenzyl)-7-[4-(4-piperidinyl)piperidin-1-yl]-1,4-dihydro-4-oxoquinoline-3-carboxylic acid] | 94.5% | 100% | – |
| O=C(O)c1cn(Cc2ccc(F)cc2)c2c(F)c(N3CCC(C4CCNCC4)CC3)c(F)cc2c1=O [Compound 78, 6,8-Difluoro-1-(4-fluorobenzyl)-7-[4-(4-piperidinyl)piperidin-1-yl]-1,4-dihydro-4-oxoquinoline-3-carboxylic acid] | 98.1% | 100% | – |
| O=C(O)c1cn(Cc2ccc(C(F)(F)F)cc2)c2c(F)c(N3CCC(C4CCNCC4)CC3)c(F)cc2c1=O [Compound 79, 6,8-Difluoro-7-[4-(4-piperidinyl)piperidin-1-yl]-1-(4-trifiuoromethylbenzyl)-1,4-dihydro-4-oxoquinoline-3-carboxylic acid] | 100% | 100% | – |
| COc1cccc(Cn2cc(C(=O)O)c(=O)c3cc(F)c(N4CCC(C5CCNCC5)CC4)c(F)c32)c1 [Compound 80, 6,8-Difluoro-1-(3-methoxybenzyl)-7-[4-(4-piperidinyl)piperidin-1-yl]-1,4-dihydro-4-oxoquinoline-3-carboxylic acid] | 100% | 100% | – |
| COc1ccc(Cn2cc(C(=O)O)c(=O)c3ccc(N4CCNCC4)cc32)cc1 [Compound 81, 1-(4-Methoxybenzyl)-7-(4-piperazin-1-yl)-1,4-dihydro-4-oxoquinoline-3-carboxylic acid] | 100% | 100% | – |
| O=C(O)c1cn(C2CC2)c2cc(N3CCNCC3)c(F)cc2c1=O [Cyprofloxacin, reference compound] | – | – | inhibition at 1 µM: 47.6%; inhibition at 10 µM: 85.5% |
| CCn1cc(C(=O)O)c(=O)c2cc(F)c(N3CCNCC3)nc21 [Enoxacin, reference compound] | – | – | inhibition at 10 µM (Table 1, 1 × 10^-5 M): 62%; inhibition at 1 µM (Table 1, 1 × 10^-6 M): 24.3% |
| CCn1cc(C(=O)O)c(=O)c2cc(F)c(N3CCNCC3)cc21 [Norfloxacin, reference compound] | – | – | inhibition at 10 µM (Table 1, 1 × 10^-5 M): 77.4%; inhibition at 1 µM (Table 1, 1 × 10^-6 M): 38.7% |
| CC1COc2c(N3CCN(C)CC3)c(F)cc3c(=O)c(C(=O)O)cn1c23 (stereo not drawn) [Ofloxacin, reference compound] | – | – | inhibition at 10 µM (Table 1, 1 × 10^-5 M): 42.4%; inhibition at 1 µM (Table 1, 1 × 10^-6 M): 4% |
| NC1CCN(c2nc3c(cc2F)c(=O)c(C(=O)O)cn3-c2ccc(F)cc2F)C1 (stereo not drawn) [Tosufloxacin, reference compound] | – | – | inhibition at 10 µM (Table 1, 1 × 10^-5 M): 37.6%; inhibition at 1 µM (Table 1, 1 × 10^-6 M): 30.7% |
| Romechloxaxin [reference compound] | – | – | GPIIb/IIIa Fibrinogen Binding Inhibitory Activity (Table 1, 1 × 10^-5 M): 59.6%; GPIIb/IIIa Fibrinogen Binding Inhibitory Activity (Table 1, 1 × 10^-6 M): 22.8% |
